Kd data for one compound are collected here from article PMC3877544 (Cell Death & Disease, 2013).

The target in this assay is voltage-dependent anion channel 1 (VDAC1) (Rattus norvegicus, UniProt Q9Z2L0). In words: microscale thermophoresis with fluorescently labeled purified VDAC1. The format is binding. (In general: In MST a laser heats a spot of the sample, and binding alters the fluorescence response.)

SMILES strings stand for the structures.

Sequence of voltage-dependent anion channel 1 (VDAC1) (Q9Z2L0 2-283): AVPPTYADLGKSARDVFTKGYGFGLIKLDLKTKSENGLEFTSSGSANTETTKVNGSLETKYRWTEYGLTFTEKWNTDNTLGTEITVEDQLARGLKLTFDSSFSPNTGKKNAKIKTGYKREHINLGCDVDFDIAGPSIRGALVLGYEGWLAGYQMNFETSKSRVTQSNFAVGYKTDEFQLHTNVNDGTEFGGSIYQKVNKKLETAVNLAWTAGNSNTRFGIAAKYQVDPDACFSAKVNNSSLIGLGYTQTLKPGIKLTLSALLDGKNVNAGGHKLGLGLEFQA

With `C=C(C)[C@@H]1CCC(C)=C[C@H]1c1c(O)cc(CCCCC)cc1O` [CBD, cannabidiol], the affinity, expressed as Kd, was 11.2 ± 6 µM.

For orientation: Kd means the free concentration of one partner at which half of the binding sites on the other are occupied at equilibrium, for simple one-to-one binding. A high value points to weaker binding.
